Among the data in ChEMBL document CHEMBL5678818, “Discovery of potent SOS1 inhibitors that block RAS activation via disruption of the RAS-SOS1 interaction” (Proc Natl Acad Sci U S A, 2019) are Activity values, retold here.

The target of assay [1] is Activin receptor type-2B (Homo sapiens) (UniProt Q13705). The experiment in a line: Inhibition of ACVR2B (unknown origin) assessed as residual activity at 1000 nM by KINOMEscan analysis relative to control.
For assay [2], the target named is Serine/threonine-protein kinase Nek4 (Homo sapiens) (UniProt P51957). As to the kind of experiment: Inhibition of NEK4 (unknown origin) assessed as residual activity at 1000 nM by KINOMEscan analysis relative to control.
The test system of assay [3] is Tyrosine-protein kinase ABL1 (Homo sapiens), P00519 [Y253F]. As to the kind of experiment: Inhibition of phosphorylated ABL1 Y253F mutant (unknown origin) assessed as residual activity at 1000 nM by KINOMEscan analysis relative to control.
Assay [4] concerns the target T1, Serine/threonine-protein kinase Nek11 (Homo sapiens) (UniProt Q8NG66).
T1 sequence (whole entry): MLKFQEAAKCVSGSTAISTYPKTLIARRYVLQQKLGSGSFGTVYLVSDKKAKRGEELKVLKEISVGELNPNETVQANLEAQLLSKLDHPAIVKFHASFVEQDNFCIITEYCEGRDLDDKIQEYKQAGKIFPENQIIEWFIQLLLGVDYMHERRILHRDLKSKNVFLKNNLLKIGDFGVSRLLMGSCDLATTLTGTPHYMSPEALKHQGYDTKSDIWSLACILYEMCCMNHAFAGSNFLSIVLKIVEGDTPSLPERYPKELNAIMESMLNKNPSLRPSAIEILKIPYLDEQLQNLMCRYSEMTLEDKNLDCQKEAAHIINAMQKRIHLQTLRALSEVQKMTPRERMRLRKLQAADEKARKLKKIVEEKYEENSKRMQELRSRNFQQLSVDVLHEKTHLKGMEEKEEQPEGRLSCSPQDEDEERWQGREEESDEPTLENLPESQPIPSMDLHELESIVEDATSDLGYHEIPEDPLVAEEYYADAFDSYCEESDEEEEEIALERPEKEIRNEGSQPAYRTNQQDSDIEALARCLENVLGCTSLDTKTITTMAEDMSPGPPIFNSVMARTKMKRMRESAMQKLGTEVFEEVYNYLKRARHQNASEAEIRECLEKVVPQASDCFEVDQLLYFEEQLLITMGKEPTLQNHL
The experiment in a line: Inhibition of NEK11 (unknown origin) assessed as residual activity at 1000 nM by KINOMEscan analysis relative to control.

For assay [5], the target named is T2, Myosin light chain kinase family member 4 (Homo sapiens) (UniProt Q86YV6).
T2 sequence (whole entry): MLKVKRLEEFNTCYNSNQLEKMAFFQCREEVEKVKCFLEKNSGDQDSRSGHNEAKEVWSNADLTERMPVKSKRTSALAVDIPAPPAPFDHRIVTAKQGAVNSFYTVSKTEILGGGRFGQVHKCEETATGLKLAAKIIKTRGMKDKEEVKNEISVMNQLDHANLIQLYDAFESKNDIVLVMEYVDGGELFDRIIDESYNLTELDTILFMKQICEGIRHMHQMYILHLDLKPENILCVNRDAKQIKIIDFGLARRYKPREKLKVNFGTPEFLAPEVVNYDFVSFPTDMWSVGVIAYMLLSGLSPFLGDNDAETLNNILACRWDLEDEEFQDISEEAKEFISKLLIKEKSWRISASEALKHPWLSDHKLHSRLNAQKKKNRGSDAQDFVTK
The experiment in a line: Inhibition of MYLK4 (unknown origin) assessed as residual activity at 1000 nM by KINOMEscan analysis relative to control.

The target of assay [6] is Ribosomal protein S6 kinase alpha-1 (Homo sapiens) (UniProt Q15418). The experiment in a line: Inhibition of N-terminal RSK1 kinetic domain 1 (unknown origin) assessed as residual activity at 1000 nM by KINOMEscan analysis relative to control.
Assay [7] deals with T3, Serine/threonine-protein kinase 17B (Homo sapiens) (UniProt O94768).
T3 sequence (whole entry): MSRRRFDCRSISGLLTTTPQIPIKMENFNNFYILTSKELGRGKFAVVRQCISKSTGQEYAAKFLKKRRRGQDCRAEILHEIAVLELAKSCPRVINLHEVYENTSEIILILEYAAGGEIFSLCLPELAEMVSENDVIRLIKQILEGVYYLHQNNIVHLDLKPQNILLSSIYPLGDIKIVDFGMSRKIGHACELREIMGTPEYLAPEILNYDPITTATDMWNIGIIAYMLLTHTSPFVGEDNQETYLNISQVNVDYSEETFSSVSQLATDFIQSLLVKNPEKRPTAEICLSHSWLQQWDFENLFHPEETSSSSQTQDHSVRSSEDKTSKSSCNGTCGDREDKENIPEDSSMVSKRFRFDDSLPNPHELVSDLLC
As to the kind of experiment: Inhibition of DRAK2 (unknown origin) assessed as residual activity at 1000 nM by KINOMEscan analysis relative to control.

The target of assay [8] is Citron Rho-interacting kinase (Homo sapiens) (UniProt O14578). As to the kind of experiment: Inhibition of CIT (unknown origin) assessed as residual activity at 1000 nM by KINOMEscan analysis relative to control.
The target in assay [9] is Mitogen-activated protein kinase 7 (Homo sapiens) (UniProt Q13164). The experiment in a line: Inhibition of ERK5 (unknown origin) assessed as residual activity at 1000 nM by KINOMEscan analysis relative to control.
In assay [10] the target is T4, Serine/threonine-protein kinase 3 (Homo sapiens) (UniProt Q13188).
T4 sequence (whole entry): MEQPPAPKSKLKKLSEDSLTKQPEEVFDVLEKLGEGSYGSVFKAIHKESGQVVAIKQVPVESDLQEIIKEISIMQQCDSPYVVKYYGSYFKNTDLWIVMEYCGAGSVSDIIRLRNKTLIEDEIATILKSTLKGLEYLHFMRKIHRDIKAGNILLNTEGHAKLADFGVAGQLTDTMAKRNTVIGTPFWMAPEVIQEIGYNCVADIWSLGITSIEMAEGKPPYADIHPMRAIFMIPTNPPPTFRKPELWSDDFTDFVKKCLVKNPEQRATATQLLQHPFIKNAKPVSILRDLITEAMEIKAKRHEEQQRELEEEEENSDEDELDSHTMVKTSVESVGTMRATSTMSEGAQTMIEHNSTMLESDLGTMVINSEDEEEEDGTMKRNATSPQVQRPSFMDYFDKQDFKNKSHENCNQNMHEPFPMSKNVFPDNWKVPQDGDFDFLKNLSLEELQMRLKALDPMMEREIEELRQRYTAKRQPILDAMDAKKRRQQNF
The experiment in a line: Inhibition of MST2 (unknown origin) assessed as residual activity at 1000 nM by KINOMEscan analysis relative to control.

Assay [11] addresses Tyrosine-protein kinase ABL1 (Homo sapiens) (UniProt P00519). As to the kind of experiment: Inhibition of phosphorylated ABL1 (unknown origin) assessed as residual activity at 1000 nM by KINOMEscan analysis relative to control.

Chain of Citron Rho-interacting kinase (Homo sapiens) (O14578 whole entry): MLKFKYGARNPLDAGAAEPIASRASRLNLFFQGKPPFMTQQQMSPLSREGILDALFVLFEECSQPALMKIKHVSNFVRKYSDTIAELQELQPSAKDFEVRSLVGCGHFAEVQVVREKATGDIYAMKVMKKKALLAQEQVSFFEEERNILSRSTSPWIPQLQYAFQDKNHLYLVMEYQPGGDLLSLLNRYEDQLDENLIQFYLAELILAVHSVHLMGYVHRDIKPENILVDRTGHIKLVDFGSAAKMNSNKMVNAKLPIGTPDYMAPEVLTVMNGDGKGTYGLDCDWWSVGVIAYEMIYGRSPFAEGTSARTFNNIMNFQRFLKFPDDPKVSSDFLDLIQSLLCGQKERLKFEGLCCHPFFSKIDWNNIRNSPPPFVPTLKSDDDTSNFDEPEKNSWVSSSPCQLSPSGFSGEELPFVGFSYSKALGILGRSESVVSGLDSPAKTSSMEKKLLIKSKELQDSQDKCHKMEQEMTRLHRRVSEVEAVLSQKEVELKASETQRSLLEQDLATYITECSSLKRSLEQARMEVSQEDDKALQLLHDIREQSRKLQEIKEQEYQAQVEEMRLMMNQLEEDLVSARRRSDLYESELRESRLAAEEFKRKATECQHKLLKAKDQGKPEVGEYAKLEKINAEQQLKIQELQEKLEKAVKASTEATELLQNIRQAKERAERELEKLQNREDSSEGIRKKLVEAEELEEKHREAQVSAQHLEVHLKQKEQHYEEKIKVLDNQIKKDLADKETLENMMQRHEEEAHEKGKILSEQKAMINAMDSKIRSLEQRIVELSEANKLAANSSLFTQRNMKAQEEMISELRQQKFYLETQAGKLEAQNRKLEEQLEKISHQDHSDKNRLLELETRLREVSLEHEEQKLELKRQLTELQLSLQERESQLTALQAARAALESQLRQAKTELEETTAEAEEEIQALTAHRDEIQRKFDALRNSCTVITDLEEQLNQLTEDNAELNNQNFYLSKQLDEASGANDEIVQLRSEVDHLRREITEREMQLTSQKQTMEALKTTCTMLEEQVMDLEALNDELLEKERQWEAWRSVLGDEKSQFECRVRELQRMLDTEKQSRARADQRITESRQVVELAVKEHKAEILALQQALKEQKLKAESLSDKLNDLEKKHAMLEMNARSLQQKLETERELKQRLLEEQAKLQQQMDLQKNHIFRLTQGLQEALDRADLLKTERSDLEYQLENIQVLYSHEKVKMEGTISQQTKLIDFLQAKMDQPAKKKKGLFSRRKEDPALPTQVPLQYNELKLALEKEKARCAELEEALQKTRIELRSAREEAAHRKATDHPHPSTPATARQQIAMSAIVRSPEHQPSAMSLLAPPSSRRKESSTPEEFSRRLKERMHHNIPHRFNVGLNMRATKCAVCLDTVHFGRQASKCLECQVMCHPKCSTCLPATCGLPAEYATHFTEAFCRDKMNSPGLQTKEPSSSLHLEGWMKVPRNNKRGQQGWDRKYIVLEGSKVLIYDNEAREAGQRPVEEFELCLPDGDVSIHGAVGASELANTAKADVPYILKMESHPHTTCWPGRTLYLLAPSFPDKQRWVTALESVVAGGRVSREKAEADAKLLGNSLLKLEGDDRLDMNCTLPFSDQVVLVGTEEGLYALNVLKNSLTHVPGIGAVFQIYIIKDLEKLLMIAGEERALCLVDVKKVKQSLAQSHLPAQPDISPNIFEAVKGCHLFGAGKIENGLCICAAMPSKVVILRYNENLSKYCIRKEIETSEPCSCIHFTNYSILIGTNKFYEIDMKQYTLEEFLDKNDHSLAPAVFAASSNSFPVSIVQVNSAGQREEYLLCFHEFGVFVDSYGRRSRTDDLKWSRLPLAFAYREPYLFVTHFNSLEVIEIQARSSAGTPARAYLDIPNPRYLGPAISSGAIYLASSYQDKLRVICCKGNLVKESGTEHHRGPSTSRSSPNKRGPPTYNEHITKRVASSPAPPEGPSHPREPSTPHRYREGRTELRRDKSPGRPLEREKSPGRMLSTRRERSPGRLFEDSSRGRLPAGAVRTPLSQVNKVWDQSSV
Chain of Ribosomal protein S6 kinase alpha-1 (Homo sapiens) (Q15418 whole entry, the tested form may be a part): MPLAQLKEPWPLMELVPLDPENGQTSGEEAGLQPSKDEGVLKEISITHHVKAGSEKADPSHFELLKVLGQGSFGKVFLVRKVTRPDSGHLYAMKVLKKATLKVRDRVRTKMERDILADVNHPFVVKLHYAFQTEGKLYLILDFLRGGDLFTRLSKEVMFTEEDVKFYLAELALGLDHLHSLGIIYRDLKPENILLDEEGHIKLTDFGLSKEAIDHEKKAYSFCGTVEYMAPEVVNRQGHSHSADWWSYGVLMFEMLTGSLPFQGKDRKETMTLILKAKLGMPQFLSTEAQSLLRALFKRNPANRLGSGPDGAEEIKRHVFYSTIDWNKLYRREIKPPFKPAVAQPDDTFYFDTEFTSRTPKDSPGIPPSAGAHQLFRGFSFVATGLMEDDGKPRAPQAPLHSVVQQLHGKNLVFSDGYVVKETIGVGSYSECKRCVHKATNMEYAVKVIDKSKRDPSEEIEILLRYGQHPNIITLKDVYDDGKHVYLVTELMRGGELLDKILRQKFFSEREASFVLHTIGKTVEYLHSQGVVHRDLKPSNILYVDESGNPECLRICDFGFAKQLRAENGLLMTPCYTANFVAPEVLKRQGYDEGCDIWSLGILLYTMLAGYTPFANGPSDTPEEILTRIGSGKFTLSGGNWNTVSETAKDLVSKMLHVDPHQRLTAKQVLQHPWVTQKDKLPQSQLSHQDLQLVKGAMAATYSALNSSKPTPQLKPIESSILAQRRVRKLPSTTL
Chain of Activin receptor type-2B (Homo sapiens) (Q13705 whole entry): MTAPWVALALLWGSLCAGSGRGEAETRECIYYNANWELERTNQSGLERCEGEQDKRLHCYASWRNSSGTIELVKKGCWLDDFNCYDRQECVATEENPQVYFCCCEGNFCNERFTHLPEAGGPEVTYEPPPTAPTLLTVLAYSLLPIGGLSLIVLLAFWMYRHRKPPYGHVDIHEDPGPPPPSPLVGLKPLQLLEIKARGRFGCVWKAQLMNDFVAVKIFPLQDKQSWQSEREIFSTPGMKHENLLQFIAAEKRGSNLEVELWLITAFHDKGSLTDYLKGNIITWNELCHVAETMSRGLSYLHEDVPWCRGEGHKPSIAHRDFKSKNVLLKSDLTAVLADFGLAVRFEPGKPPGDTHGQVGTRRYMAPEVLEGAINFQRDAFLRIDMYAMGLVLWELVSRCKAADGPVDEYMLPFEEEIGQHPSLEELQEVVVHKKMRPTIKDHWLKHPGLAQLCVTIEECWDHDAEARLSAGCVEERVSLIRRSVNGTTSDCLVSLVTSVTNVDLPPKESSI
Chain of Mitogen-activated protein kinase 7 (Homo sapiens) (Q13164 2-816 limits assumed): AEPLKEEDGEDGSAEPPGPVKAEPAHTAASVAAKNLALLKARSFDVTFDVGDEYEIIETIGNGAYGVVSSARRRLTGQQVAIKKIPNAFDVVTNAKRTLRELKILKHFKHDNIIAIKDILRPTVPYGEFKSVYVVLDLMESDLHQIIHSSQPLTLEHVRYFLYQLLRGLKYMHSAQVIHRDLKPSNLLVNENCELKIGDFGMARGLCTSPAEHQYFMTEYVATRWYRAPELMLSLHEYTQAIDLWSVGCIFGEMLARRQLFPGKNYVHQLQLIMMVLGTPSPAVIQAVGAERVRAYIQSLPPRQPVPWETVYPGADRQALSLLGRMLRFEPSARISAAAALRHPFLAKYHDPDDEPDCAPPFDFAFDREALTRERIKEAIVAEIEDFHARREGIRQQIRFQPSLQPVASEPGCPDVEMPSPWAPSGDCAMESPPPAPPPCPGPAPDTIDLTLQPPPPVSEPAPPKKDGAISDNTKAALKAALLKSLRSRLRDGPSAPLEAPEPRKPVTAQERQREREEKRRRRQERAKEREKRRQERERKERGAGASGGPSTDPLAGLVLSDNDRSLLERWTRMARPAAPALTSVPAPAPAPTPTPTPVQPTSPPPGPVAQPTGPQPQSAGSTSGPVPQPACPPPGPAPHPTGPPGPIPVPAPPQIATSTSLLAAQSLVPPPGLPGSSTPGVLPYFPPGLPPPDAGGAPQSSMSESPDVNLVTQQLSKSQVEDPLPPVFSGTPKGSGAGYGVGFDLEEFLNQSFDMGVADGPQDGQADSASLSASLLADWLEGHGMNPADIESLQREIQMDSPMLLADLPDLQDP
Chain of Serine/threonine-protein kinase Nek4 (Homo sapiens) (P51957 whole entry, looked up): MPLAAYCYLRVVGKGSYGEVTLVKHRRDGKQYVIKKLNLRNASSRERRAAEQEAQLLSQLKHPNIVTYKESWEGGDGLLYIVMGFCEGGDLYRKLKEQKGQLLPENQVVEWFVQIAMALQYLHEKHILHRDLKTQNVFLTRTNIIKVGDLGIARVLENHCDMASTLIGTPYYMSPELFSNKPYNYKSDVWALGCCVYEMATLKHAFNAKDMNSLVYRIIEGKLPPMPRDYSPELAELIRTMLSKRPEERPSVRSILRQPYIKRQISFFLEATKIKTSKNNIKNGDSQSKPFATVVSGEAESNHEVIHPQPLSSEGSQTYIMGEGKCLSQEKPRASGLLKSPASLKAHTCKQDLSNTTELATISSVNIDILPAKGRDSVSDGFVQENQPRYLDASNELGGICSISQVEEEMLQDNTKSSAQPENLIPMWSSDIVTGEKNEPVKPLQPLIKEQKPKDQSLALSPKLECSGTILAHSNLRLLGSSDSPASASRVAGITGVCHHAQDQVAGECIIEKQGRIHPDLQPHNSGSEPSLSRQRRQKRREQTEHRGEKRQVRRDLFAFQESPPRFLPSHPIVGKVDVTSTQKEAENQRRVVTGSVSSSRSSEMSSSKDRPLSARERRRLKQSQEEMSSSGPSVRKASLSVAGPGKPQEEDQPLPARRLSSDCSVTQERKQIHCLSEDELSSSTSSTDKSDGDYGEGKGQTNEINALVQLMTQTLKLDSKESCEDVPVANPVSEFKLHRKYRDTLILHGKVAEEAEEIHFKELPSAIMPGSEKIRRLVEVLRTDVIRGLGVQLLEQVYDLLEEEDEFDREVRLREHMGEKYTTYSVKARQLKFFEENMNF

Take `COc1cc2nc(C)nc(N[C@H](C)c3cccc(-c4cn[nH]c4)c3)c2cc1OC`: the Activity is 91% in [1]; 81% in [2]; 92% in assay [3]; 93% in assay [4]; 92% in assay [5]; 95% in assay [6]. Moreover, the Activity was found to be 67% in assay [7]; 93% in assay [8]; 69% in [9]; 79% in [10]; 81% in assay [11].
Take `COc1cc2ncnc(N[C@H](C)c3cccc4ccccc34)c2cc1OC`: the Activity in assay [1] came to 100%; in assay [2], 90%; in assay [3], 79%; in assay [4], 81%; in assay [5], 75%; in assay [6], 76%. For the same molecule, the Activity in assay [7] was found to be 100%; in [8], 85%; in assay [9], 91%; in [10], 96%; in assay [11], 97%.
